Measurements published in US12054470B2, “Photoswitchable dibenzothienylmethyl triphenylphosphonium derivatives and methods of treating cancer therewith” (Saint Louis University, priority 2018, dated 2024).

Experiments:
[1] = test system: MDA-MB-231 breast cancer cells; experiment: MTS cell viability assay with and without UV-A exposure; assay type: cell-based; conditions: compound added pre-UV exposure (UV-A 30 min), 100 μM and 10 μM, MTS after 24 h, vs. VC, n=4
Protocol: After 24 hours incubation at 37° C., varying concentrations of 2-TPPMDBTO were added and incubated for 1 hour at 37° C. One plate with cells were then left at room temperature covered for 15 minutes (cells without UV). The second plate was exposed to UV-A in a Luzchem photoreactor with 8 LZC-UVA lamps for 15 minutes (Cells with UV). Plates were then incubated for 24 hours at 37° C. and then a MTS cell viability assay (Promega) was performed. Cell viability assay was run on a Flexstation3 mulitmode plate reader and percent viability was calculated. Statistical analyses were performed using GraphPad Prism program.
FIGS. 6A-C show cell studies wherein MDA-MB-231 breast cancer cells were plated at 10,000 cells/well on three 96 well plates. After 24 hours incubation at 37° C., varying concentrations of MA-1 and MA-2 were added and incubated for 1 hour at 37° C. on only two plates (pre-UV and no UV exposure). One plate with cells were then left at room temperature covered for 30 min (no UV). The second plate (pre-UV) and the third plate (post-UV) were exposed to UV-A in a Luzchem photoreactor with 8 LZC-UVA lamps for 30 min. Varying concentrations of MA-1, MA-2, MA-3 and MA-4 were added to post UV plate after irradiation. […] Cell viability assay was run on a Flexstation3 mulitmode plate reader and percent viability was calculated. […]

cell cycle progression = experiment: Cell cycle progression with, without or before UV-A irradiation; assay type: cell-based
Water solubility = assay type: physicochemical

Row | water solubility (Water solubility) | Compound | % cell viability [1] | cell cycle progression / cell cycle arrest (cell cycle progression; compound administered in the absence of UV or after irradiation) | cell cycle progression / cell cycle arrest (cell cycle progression; compound administered in the absence of UV or after irradiation, listed as 1a) | cell cycle progression / cell cycle arrest (cell cycle progression; in the presence of UV-A irradiation) | cell cycle progression / cell cycle arrest (cell cycle progression; in the presence of UV-A irradiation, listed as 1a)
1 | – | (5-oxo-2-dibenzothienylmethyl)triphenylphosphonium [MA-1] | decrease in % cell viability is observed | the progression of the cell cycle is not arrested | no significant change in the progress was seen | cell cycle progression is arrested | presence of UV-A irradiation is necessary to lead to cell cycle arrest
2 | water soluble | [O-][s+]1c2ccccc2c2cc(C[P+](c3ccccc3)(c3ccccc3)c3ccccc3)ccc21 (stereo not drawn) [MA-1, (5-oxo-2-dibenzothienylmethyl)triphenylphosphonium] | – | – | – | – | –
